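1) Cells in 96-well plates. 2) Compound, 48 h, 5 concentrations. 3) Linear interpolation between surrounding doses. 4) Unreached endpoint = highest concentration. GI50 marks 50% less growth.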 Calls of active or inactive are those of the source. Cut-off read from the data, not from the text of the source: active = GI50 up to about 1.1 µM and inactive = higher.
Legend:
Assay in all cases: NCI tumour cell line growth inhibition, 48 h
786-0 = tested on: 786-0
A498 = tested on: A498
A549 = tested on: A549
ACHN = tested on: ACHN
CAKI-1 = tested on: CAKI-1
CCRF-CEM = tested on: CCRF-CEM
COLO 205 = tested on: COLO 205
DLD-1 = tested on: DLD-1
DMS-114 = tested on: DMS-114
DMS-273 = tested on: DMS-273
EKVX = tested on: EKVX
HCC 2998 = tested on: HCC 2998
HCT-116 = tested on: HCT-116
HCT-15 = tested on: HCT-15
HOP-18 = tested on: HOP-18
HOP-62 = tested on: HOP-62
HOP-92 = tested on: HOP-92
HT-29 = tested on: HT-29
IGROV-1 = tested on: IGROV-1
K562 = tested on: K562
KM-20L2 = tested on: KM-20L2
KM12 = tested on: KM12
LOX IMVI = tested on: LOX IMVI
LXFL 529 = tested on: LXFL 529
M14 = tested on: M14
M19-MEL = tested on: M19-MEL
MOLT-4 = tested on: MOLT-4
Malme-3M = tested on: Malme-3M
NCI-H23 = tested on: NCI-H23
NCI-H460 = tested on: NCI-H460
NCI-H522 = tested on: NCI-H522
OVCAR-3 = tested on: OVCAR-3
OVCAR-4 = tested on: OVCAR-4
OVCAR-5 = tested on: OVCAR-5
OVCAR-8 = tested on: OVCAR-8
RPMI-8226 = tested on: RPMI-8226
RXF 393 = tested on: RXF 393
SF-268 = tested on: SF-268
SF-295 = tested on: SF-295
SF-539 = tested on: SF-539
SK-MEL-28 = tested on: SK-MEL-28
SK-MEL-2 = tested on: SK-MEL-2
SK-MEL-5 = tested on: SK-MEL-5
SK-OV-3 = tested on: SK-OV-3
SN12C = tested on: SN12C
SNB-19 = tested on: SNB-19
SNB-75 = tested on: SNB-75
SNB-78 = tested on: SNB-78
SW-620 = tested on: SW-620
TK-10 = tested on: TK-10
U-251 = tested on: U-251
UACC-257 = tested on: UACC-257
UACC-62 = tested on: UACC-62
UO-31 = tested on: UO-31
XF498 = tested on: XF498
HL-60 = tested on: HL-60
MCF7 = tested on: MCF7
NCI-H226 = tested on: NCI-H226
NCI/ADR-RES = tested on: NCI/ADR-RES

## Cc1cc(C)nc(NS(=O)(=O)c2ccc(NC(=O)c3cccc4c(Nc5ccc(S(=O)(=O)Nc6nc(C)cc(C)n6)cc5)c5ccc(Cl)cc5nc34)cc2)n1
786-0
  GI50: 28.4 µM (inactive)
A498
  GI50: 45 µM (inactive)
A549
  GI50: 41.1 µM (inactive)
ACHN
  GI50: 27.3 µM (inactive)
CAKI-1
  GI50: 19.5 µM (inactive)
CCRF-CEM
  GI50: 27.5 µM (inactive)
COLO 205
  GI50: 33.8 µM (inactive)
DLD-1
  GI50: 33.7 µM (inactive)
DMS-114
  GI50: 25.1 µM (inactive)
DMS-273
  GI50: 77.6 µM (inactive)
EKVX
  GI50: 29.5 µM (inactive)
HCC 2998
  GI50: 36.6 µM (inactive)
HCT-116
  GI50: 28.1 µM (inactive)
HCT-15
  GI50: 75.5 µM
HOP-18
  GI50: > 100 µM (inactive)
HOP-62
  GI50: 24.4 µM (inactive)
HOP-92
  GI50: 28 µM (inactive)
HT-29
  GI50: 40.6 µM (inactive)
IGROV-1
  GI50: 46.2 µM (inactive)
K562
  GI50: 26.1 µM (inactive)
KM-20L2
  GI50: 40.5 µM (inactive)
KM12
  GI50: 33.1 µM (inactive)
LOX IMVI
  GI50: 29.2 µM (inactive)
LXFL 529
  GI50: 33 µM (inactive)
M14
  GI50: 37.4 µM (inactive)
M19-MEL
  GI50: 37.8 µM (inactive)
MOLT-4
  GI50: 33.3 µM (inactive)
Malme-3M
  GI50: 16.4 µM (inactive)
NCI-H23
  GI50: 39.4 µM (inactive)
NCI-H460
  GI50: 37 µM (inactive)
NCI-H522
  GI50: 15.6 µM (inactive)
OVCAR-3
  GI50: 17.5 µM (inactive)
OVCAR-4
  GI50: 35.6 µM (inactive)
OVCAR-5
  GI50: > 100 µM (inactive)
OVCAR-8
  GI50: 34.7 µM (inactive)
RPMI-8226
  GI50: 28.2 µM (inactive)
RXF 393
  GI50: 78.3 µM (inactive)
SF-268
  GI50: 28.6 µM (inactive)
SF-295
  GI50: 38 µM (inactive)
SF-539
  GI50: 37.8 µM (inactive)
SK-MEL-28
  GI50: 29.6 µM (inactive)
SK-MEL-2
  GI50: 34 µM (inactive)
SK-MEL-5
  GI50: 20.1 µM (inactive)
SK-OV-3
  GI50: 26.7 µM (inactive)
SN12C
  GI50: 35.5 µM (inactive)
SNB-19
  GI50: 28.1 µM (inactive)
SNB-75
  GI50: 17.1 µM (inactive)
SNB-78
  GI50: 39.4 µM (inactive)
SW-620
  GI50: 54.1 µM (inactive)
TK-10
  GI50: 30.8 µM (inactive)
U-251
  GI50: 27.5 µM (inactive)
UACC-257
  GI50: 20.8 µM (inactive)
UACC-62
  GI50: 23.1 µM (inactive)
UO-31
  GI50: 13.4 µM (inactive)
XF498
  GI50: 23.1 µM (inactive)

## CCOC(=O)C1=C(C(C)=O)CSC(c2ccccc2)=N1
A498
  GI50: > 100 µM (inactive)
A549
  GI50: > 100 µM (inactive)
CAKI-1
  GI50: > 100 µM (inactive)
CCRF-CEM
  GI50: > 100 µM (inactive)
COLO 205
  GI50: > 100 µM (inactive)
DLD-1
  GI50: > 100 µM (inactive)
DMS-114
  GI50: > 100 µM (inactive)
DMS-273
  GI50: > 100 µM (inactive)
EKVX
  GI50: > 100 µM (inactive)
HCC 2998
  GI50: > 100 µM (inactive)
HCT-116
  GI50: > 100 µM (inactive)
HCT-15
  GI50: > 100 µM
HL-60
  GI50: > 100 µM (inactive)
HOP-18
  GI50: > 100 µM (inactive)
HOP-92
  GI50: > 100 µM (inactive)
HT-29
  GI50: > 100 µM (inactive)
IGROV-1
  GI50: > 100 µM (inactive)
K562
  GI50: > 100 µM (inactive)
KM-20L2
  GI50: > 100 µM (inactive)
KM12
  GI50: > 100 µM (inactive)
LOX IMVI
  GI50: > 100 µM (inactive)
M19-MEL
  GI50: > 100 µM (inactive)
MCF7
  GI50: 40.7 µM (inactive)
MOLT-4
  GI50: > 100 µM (inactive)
Malme-3M
  GI50: > 100 µM (inactive)
NCI-H226
  GI50: > 89.7 µM (inactive)
NCI-H23
  GI50: 98.4 µM (inactive)
NCI-H460
  GI50: > 100 µM (inactive)
NCI-H522
  GI50: > 100 µM (inactive)
NCI/ADR-RES
  GI50: > 100 µM (inactive)
OVCAR-3
  GI50: > 100 µM (inactive)
OVCAR-4
  GI50: > 100 µM (inactive)
OVCAR-5
  GI50: > 100 µM (inactive)
OVCAR-8
  GI50: > 100 µM (inactive)
RPMI-8226
  GI50: > 100 µM (inactive)
RXF 393
  GI50: > 100 µM (inactive)
SF-268
  GI50: > 100 µM (inactive)
SF-295
  GI50: > 100 µM (inactive)
SF-539
  GI50: > 100 µM (inactive)
SK-MEL-28
  GI50: > 100 µM (inactive)
SK-MEL-2
  GI50: > 100 µM (inactive)
SK-MEL-5
  GI50: > 100 µM (inactive)
SK-OV-3
  GI50: > 100 µM (inactive)
SN12C
  GI50: > 100 µM (inactive)
SNB-19
  GI50: > 100 µM (inactive)
SNB-75
  GI50: > 100 µM (inactive)
SNB-78
  GI50: > 63.2 µM (inactive)
SW-620
  GI50: > 100 µM (inactive)
U-251
  GI50: > 100 µM (inactive)
UACC-257
  GI50: > 100 µM (inactive)
UACC-62
  GI50: > 100 µM (inactive)
UO-31
  GI50: 97.9 µM (inactive)
XF498
  GI50: > 100 µM (inactive)

## COC(=O)[C@]1(c2ccc(N(C)C)cc2OC)C[C@@H]2CCCN(CCc3c1[nH]c1ccccc31)C2
A498
  GI50: 19 µM (inactive)
A549
  GI50: 34.4 µM (inactive)
CAKI-1
  GI50: 54.1 µM (inactive)
CCRF-CEM
  GI50: 25 µM (inactive)
COLO 205
  GI50: 13.8 µM (inactive)
DLD-1
  GI50: 27.2 µM (inactive)
DMS-114
  GI50: 16.6 µM (inactive)
DMS-273
  GI50: 20.5 µM (inactive)
EKVX
  GI50: 22.3 µM (inactive)
HCC 2998
  GI50: 15.3 µM (inactive)
HCT-116
  GI50: 29.9 µM (inactive)
HCT-15
  GI50: 20.8 µM
HL-60
  GI50: 11.7 µM (inactive)
HOP-18
  GI50: 24.1 µM (inactive)
HOP-62
  GI50: 30.3 µM (inactive)
HOP-92
  GI50: 10.7 µM (inactive)
HT-29
  GI50: 15 µM (inactive)
IGROV-1
  GI50: 20.2 µM (inactive)
K562
  GI50: 17.3 µM (inactive)
KM-20L2
  GI50: 17.1 µM (inactive)
KM12
  GI50: 23.1 µM (inactive)
LOX IMVI
  GI50: > 43.7 µM (inactive)
M19-MEL
  GI50: 16.4 µM (inactive)
MCF7
  GI50: 15.9 µM (inactive)
MOLT-4
  GI50: 31 µM (inactive)
Malme-3M
  GI50: 15.9 µM (inactive)
NCI-H226
  GI50: 17.4 µM (inactive)
NCI-H23
  GI50: 18.9 µM (inactive)
NCI-H460
  GI50: 16.7 µM (inactive)
NCI-H522
  GI50: 17.4 µM (inactive)
NCI/ADR-RES
  GI50: 18.8 µM (inactive)
OVCAR-3
  GI50: 18.5 µM (inactive)
OVCAR-4
  GI50: 13.3 µM (inactive)
OVCAR-5
  GI50: > 60.4 µM (inactive)
OVCAR-8
  GI50: 24.9 µM (inactive)
RPMI-8226
  GI50: 28.1 µM (inactive)
RXF 393
  GI50: 19.8 µM (inactive)
SF-268
  GI50: 21.1 µM (inactive)
SF-295
  GI50: > 43.7 µM (inactive)
SF-539
  GI50: 20.5 µM (inactive)
SK-MEL-28
  GI50: 19.6 µM (inactive)
SK-MEL-2
  GI50: 20.3 µM (inactive)
SK-MEL-5
  GI50: 17.2 µM (inactive)
SK-OV-3
  GI50: > 47 µM (inactive)
SN12C
  GI50: 19.3 µM (inactive)
SNB-19
  GI50: 74 µM (inactive)
SNB-75
  GI50: 12.4 µM (inactive)
SNB-78
  GI50: 31 µM (inactive)
SW-620
  GI50: 40.3 µM (inactive)
U-251
  GI50: 19.1 µM (inactive)
UACC-257
  GI50: 21 µM (inactive)
UACC-62
  GI50: 18 µM (inactive)
UO-31
  GI50: 15.5 µM (inactive)
XF498
  GI50: 18.7 µM (inactive)

From ChEMBL document CHEMBL1201862, “PubChem BioAssay data set” (2004)
